From patent US11566007B2, “Ras inhibitors” (Revolution Medicines, Inc., priority 2019, dated 2023)

Experiments:
[1] = target: NRAS Q61K (Homo sapiens (Human), UniProt P01111+P62937, Q61K); assay: Ras-Raf (BRAF RBD) disruption / FRET / MOA assay, NRAS Q61K; assay type: biochemical; conditions: NRAS Q61K; Ras-Raf disruption/FRET/MOA assay; read-out: IC50* NRAS Q61K FRET data
Procedure, shortened: (§1)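 Compounds were tested as a 10-point 3-fold dilution series from 30 μM final for their ability to drive ternary complex formation between nucleotide-loaded Ras and cyclophilin A, displacing the BRAF RBD. After 3 h at 25° C., anti-His Eu-W1024 (10 nM) and anti-GST allophycocyanin (50 nM) were added for 1.5 h. A TR-FRET ratio decrease versus DMSO gave IC50.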

[2] = target: KRAS Q61H (Homo sapiens (Human), UniProt P01116+P62937, Q61H); assay: Ras-Raf (BRAF RBD) disruption / FRET / MOA assay, KRAS Q61H; assay type: biochemical; conditions: Ras-Raf disruption/FRET/MOA assay; class symbols; read-out: KRAS Q61H FRET data IC50
Sequence of KRAS Q61H (P01116-2 other isoform, or with tags, fused parts or gaps Q61H): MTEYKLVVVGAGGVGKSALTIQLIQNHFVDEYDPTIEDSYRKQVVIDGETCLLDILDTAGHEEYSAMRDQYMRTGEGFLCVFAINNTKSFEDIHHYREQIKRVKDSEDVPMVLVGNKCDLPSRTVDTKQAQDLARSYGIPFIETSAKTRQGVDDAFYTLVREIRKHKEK
Sequence of KRAS Q61H (P62937 whole entry): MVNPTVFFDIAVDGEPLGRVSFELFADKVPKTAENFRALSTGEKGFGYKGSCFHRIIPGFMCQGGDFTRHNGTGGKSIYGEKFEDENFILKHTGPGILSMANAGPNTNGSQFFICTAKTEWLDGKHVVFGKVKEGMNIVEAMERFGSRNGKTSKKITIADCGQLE
Procedure, shortened: as §1

[3] = target: KRAS G12D (Homo sapiens (Human), UniProt P01116+P62937, G12D); assay: Ras-Raf (BRAF RBD) disruption / FRET / MOA assay, KRAS G12D; assay type: biochemical; conditions: Ras-Raf disruption/FRET/MOA assay; class symbols; read-out: KRAS G12D FRET data IC50
Sequence of KRAS G12D (P01116-2 other isoform, or with tags, fused parts or gaps G12D): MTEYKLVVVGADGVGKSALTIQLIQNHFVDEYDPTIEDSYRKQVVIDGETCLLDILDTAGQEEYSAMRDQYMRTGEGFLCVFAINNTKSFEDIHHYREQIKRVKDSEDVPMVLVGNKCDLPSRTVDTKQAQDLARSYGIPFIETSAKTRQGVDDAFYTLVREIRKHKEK
Sequence of KRAS G12D (P62937 whole entry): as the sequence (P62937 whole entry) above
Procedure, shortened: (§2)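 TR-FRET read-out: a drop in ratio relative to DMSO wells marks disruption of the Ras:RAF complex, reported as IC50. Compounds (3-fold series, 10 points, top 30 μM final) incubated 3 h at 25° C before Eu-anti-His 10 nM and APC-anti-GST 50 nM, 1.5 h more.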

[4] = target: KRAS WT (Homo sapiens (Human), UniProt P01116+P62937); assay: Ras-Raf (BRAF RBD) disruption / FRET / MOA assay, KRAS WT; assay type: biochemical; conditions: read-out: IC50* KRAS WT FRET data
Sequence of KRAS WT (P01116-2 other isoform, or with tags, fused parts or gaps): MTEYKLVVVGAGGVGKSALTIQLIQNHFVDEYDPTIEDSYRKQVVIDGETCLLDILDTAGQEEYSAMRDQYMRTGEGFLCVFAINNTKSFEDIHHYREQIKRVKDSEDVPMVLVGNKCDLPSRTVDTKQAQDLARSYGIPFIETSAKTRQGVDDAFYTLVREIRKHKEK
Sequence of KRAS WT (P62937 whole entry): as the sequence (P62937 whole entry) above
Procedure, shortened: as §2

[5] = tested on: NCI-H358 (K-Ras G12C); assay: CellTiter-Glo cell viability assay, NCI-H358; assay type: cell-based, human; conditions: Homo sapiens, NCI-H358, 120 h, NCI-H358, 5-day treatment; class symbols; read-out: Additional H358 Cell Viability assay data (K-Ras G12C, IC50)
Procedure, shortened: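 Compounds were dispensed directly onto K-Ras mutant cells and incubated until day 5, then plates were equilibrated to room temperature for about 30 minutes before CellTiter-Glo luminescence. Signals were normalized as (sample/average DMSO)*100 and fitted by four-parameter logistic fit.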

[6] = target: NRAS WT (Homo sapiens (Human), UniProt P01111+P62937); assay: Ras-Raf (BRAF RBD) disruption / FRET / MOA assay, NRAS WT; assay type: biochemical; conditions: read-out: IC50* NRAS WT FRET data
Sequence of NRAS WT (P01111 whole entry): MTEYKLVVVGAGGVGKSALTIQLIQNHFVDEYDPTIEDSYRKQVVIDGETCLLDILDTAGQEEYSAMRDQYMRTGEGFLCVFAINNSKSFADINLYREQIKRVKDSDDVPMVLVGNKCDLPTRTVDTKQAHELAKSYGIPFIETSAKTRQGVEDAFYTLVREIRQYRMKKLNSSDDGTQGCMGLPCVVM
Sequence of NRAS WT (P62937 whole entry): as the sequence (P62937 whole entry) above
Procedure, shortened: as §1

[7] = target: NRAS G12C (Homo sapiens (Human), UniProt P01111+P62937, G12C); assay: Ras-Raf (BRAF RBD) disruption / FRET / MOA assay, NRAS G12C; assay type: biochemical; conditions: read-out: IC50* NRAS G12C FRET data
Sequence of NRAS G12C (P01111 whole entry G12C): as the sequence (P01111 whole entry) above, with G12C counted along it
Sequence of NRAS G12C (P62937 whole entry): as the sequence (P62937 whole entry) above
Procedure, shortened: as §2

[8] = target: NRAS Q61R (Homo sapiens (Human), UniProt P01111+P62937, Q61R); assay: Ras-Raf (BRAF RBD) disruption / FRET / MOA assay, NRAS Q61R; assay type: biochemical; conditions: NRAS Q61R; Ras-Raf disruption/FRET/MOA assay; read-out: IC50* NRAS Q61R FRET data
Sequence of NRAS Q61R (P01111 whole entry Q61R): as the sequence (P01111 whole entry) above, with Q61R counted along it
Sequence of NRAS Q61R (P62937 whole entry): as the sequence (P62937 whole entry) above
Procedure, shortened: as §1

[9] = target: KRAS G12V (Homo sapiens (Human), UniProt P01116+P62937, G12V); assay: Ras-Raf (BRAF RBD) disruption / FRET / MOA assay, KRAS G12V; assay type: biochemical; conditions: read-out: IC50* KRAS G12V FRET data
Sequence of KRAS G12V (P01116-2 other isoform, or with tags, fused parts or gaps G12V): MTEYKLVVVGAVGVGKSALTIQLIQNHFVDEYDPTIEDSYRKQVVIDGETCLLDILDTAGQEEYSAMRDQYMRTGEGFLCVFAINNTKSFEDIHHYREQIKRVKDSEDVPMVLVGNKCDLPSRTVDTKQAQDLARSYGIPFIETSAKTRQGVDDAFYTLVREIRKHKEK
Sequence of KRAS G12V (P62937 whole entry): as the sequence (P62937 whole entry) above
Procedure, shortened: as §2

[10] = target: K-Ras G12C (Homo sapiens (Human), UniProt P01116+P62937, G12C); assay: Ras-Raf (BRAF RBD) disruption / FRET / MOA assay, KRAS G12C; assay type: biochemical; conditions: KRAS G12C; Ras-Raf disruption/FRET/MOA assay; read-out: IC50* KRAS G12C FRET data
Sequence of K-Ras G12C (P01116-2 other isoform, or with tags, fused parts or gaps G12C): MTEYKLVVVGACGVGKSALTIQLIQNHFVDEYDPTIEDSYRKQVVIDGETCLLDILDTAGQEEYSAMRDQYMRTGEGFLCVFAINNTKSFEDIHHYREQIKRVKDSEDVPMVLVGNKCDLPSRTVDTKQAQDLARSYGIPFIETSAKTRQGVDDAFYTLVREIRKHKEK
Sequence of K-Ras G12C (P62937 whole entry): as the sequence (P62937 whole entry) above
Procedure, shortened: as §2

[11] = target: KRAS G12S (Homo sapiens (Human), UniProt P01116+P62937, G12S); assay: Ras-Raf (BRAF RBD) disruption / FRET / MOA assay, KRAS G12S; assay type: biochemical; conditions: Ras-Raf disruption/FRET/MOA assay; class symbols; read-out: KRAS G12S FRET data IC50
Sequence of KRAS G12S (P01116-2 other isoform, or with tags, fused parts or gaps G12S): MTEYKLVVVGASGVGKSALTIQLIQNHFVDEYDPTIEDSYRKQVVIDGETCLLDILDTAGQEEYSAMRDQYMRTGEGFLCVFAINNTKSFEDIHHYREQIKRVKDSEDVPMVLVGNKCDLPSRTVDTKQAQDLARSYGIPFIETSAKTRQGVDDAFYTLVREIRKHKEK
Sequence of KRAS G12S (P62937 whole entry): as the sequence (P62937 whole entry) above
Procedure, shortened: as §2

Sequence of NRAS Q61K (P01111 whole entry Q61K): as the sequence (P01111 whole entry) above, with Q61K counted along it
Sequence of NRAS Q61K (P62937 whole entry): as the sequence (P62937 whole entry) above

| SMILES | IC50 [1] [nM] | IC50 [2] [nM] | IC50 [3] [nM] | IC50 [4] [nM] | IC50 [5] [nM] | IC50 [6] [nM] | IC50 [7] [nM] | IC50 [8] [nM] | IC50 [9] [nM] | IC50 [10] [nM] | IC50 [11] [nM] |
| --- | --- | --- | --- | --- | --- | --- | --- | --- | --- | --- | --- |
| C=CC(=O)N1CCO[C@H]2CN(C(=O)N(C)[C@H](C(=O)N[C@H]3CC4=NN=C(O4)c4ccc5c(c4)c(c(-c4cccnc4[C@H](C)OC)n5CC(F)(F)F)CC(C)(C)COC(=O)[C@@H]4CCCN(N4)C3=O)C(C)C)C[C@H]21 (atropisomer, axis not shown) [Example A576] | 1000 to 10000 | 1000 to 10000 | > 10000 | 1000 to 10000 | 100 to 1000 | 1000 to 10000 | 100 to 1000 | > 10000 | > 10000 | 100 to 1000 | > 10000 |
| CO[C@@H](C)c1ncccc1-c1c2c3cc(ccc3n1CC(F)(F)F)-c1nc(co1)C[C@H](NC(=O)[C@H](C(C)C)N(C)C(=O)C1(F)CCN(C(=O)C#CC(C)(C)N(C)C)CC1)C(=O)N1CCC[C@H](N1)C(=O)OCC(C)(C)C2 (atropisomer, axis not shown) [Example A578] | 100 to 1000 | 10 to 100 | 100 to 1000 | 100 to 1000 | < 10 | 100 to 1000 | < 10 | 100 to 1000 | 100 to 1000 | < 10 | 100 to 1000 |
| CCn1c(-c2cccnc2[C@H](C)OC)c2c3cc(ccc31)-c1cccc(c1)C[C@H](NC(=O)[C@@H](CO[C@H]1CCN(C(=O)C#CC(C)(C)N(C)C)C1)C(C)C)C(=O)N1CCC[C@H](N1)C(=O)OCC(C)(C)C2 (atropisomer, axis not shown) [Example A585] | > 10000 | 1000 to 10000 | > 10000 | 1000 to 10000 | < 10 | 1000 to 10000 | 10 to 100 | > 10000 | 1000 to 10000 | 10 to 100 | 1000 to 10000 |
| CCn1c(-c2cccnc2[C@H](C)OC)c2c3cc(ccc31)C1=CCCN(C1)C[C@H](NC(=O)[C@H](C(C)C)N(C)C(=O)C1(F)CCN(C(=O)C#CC(C)(C)N(C)C)CC1)C(=O)N1CCC[C@H](N1)C(=O)OCC(C)(C)C2 (atropisomer, axis not shown) [Example A591] | 1000 to 10000 | 100 to 1000 | 1000 to 10000 | 100 to 1000 | < 10 | 100 to 1000 | < 10 | 100 to 1000 | 100 to 1000 | < 10 | 100 to 1000 |
| CCn1c(-c2cccnc2[C@H](C)OC)c2c3cc(ccc31)-c1cccc(c1)C[C@H](NC(=O)[C@@H](COC1CN(C(=O)C#CC(C)(C)N(C)C(C)C)C1)C(C)C)C(=O)N1CCC[C@H](N1)C(=O)OCC(C)(C)C2 (atropisomer, axis not shown) [Example A599] | > 10000 | > 10000 | > 10000 | > 10000 | < 10 | > 10000 | 10 to 100 | > 10000 | 1000 to 10000 | < 10 | > 10000 |
| CO[C@@H](C)c1ncccc1-c1c2c3cc(ccc3n1CC(F)(F)F)-c1cccc(c1)CN(NC(=O)[C@@H](COC1CN(C(=O)C#CC(C)(C)N(C)C)C1)C(C)C)C(=O)N1CCC[C@H](N1)C(=O)OCC(C)(C)C2 (atropisomer, axis not shown) [Example A601] | 1000 to 10000 | 1000 to 10000 | > 10000 | 1000 to 10000 | < 10 | 1000 to 10000 | < 10 | 1000 to 10000 | 1000 to 10000 | < 10 | 1000 to 10000 |
